# Source: patent US6511811B1, “Protein kinase C antagonist related to insulin receptor” (The Regents of the University of California, priority 1995, dated 2003)
# Ends that are not written are not given here.
# Experiments:
# [1] = system: insulin receptor; test: 32P labelling and two-dimensional tryptic phosphopeptide analysis of insulin receptor; assay type: cell-based, human; conditions: stimulation of 32P-labelled HIRcB cells; FIG. 8
# Description: HIRcB cells were serum-starved for 16 h and then incubated in phosphate-free DMEM containing 2 mCi/ml ^32P-orthophosphate for 3 h. The cells were then stimulated with high glucose (25 mM) or insulin as indicated. The cells were lysed, and the insulin receptor was immunoprecipitated using […] antibody 83-14 as described. The washed immunoprecipitates were analyzed by SDS electrophoresis. The labeled β-subunit was visualized by autoradiography, excised from the gels and recovered by electroelution.
# Polyacrylamide-gel pieces containing ^32P-labeled IR and IRS-1 following in vitro phosphorylation were electroeluted in 20 mM Tris-HCl, pH 8.0, 2 mM EDTA, 0.1% SDS, and 0.1% 2-mercaptoethanol for 4 h. Eluted protein was precipitated with four volumes of acetone at −80° C. for 60 min followed by centrifugation at room temperature for 10 min at 10,000 g. The pellet was dried and digested with 10 μg of TPCK-treated trypsin (Worthington Diagnostic Systems, Freehold, N.J.) in 100 μl of 100 mM N-ethylmorpholine acetate (NMA), pH 8.2, for 24 h at 37° C. A further 10 μg of TPCK-treated trypsin was added and digestion continued for 12 h. The peptides were lyophilized, resuspended with water, and re-lyophilized at least three times. The ^32P-labeled tryptic peptides were then resuspended in 5 μl of electrophoresis buffer and spotted onto thin layer cellulose plates. […]
# [2] = system: insulin receptor kinase activity; conditions: incubation of cells with the inhibitor; Mosthaf et al.; cited from earlier work
# [3] = system: HIRcB cells; test: Microinjection of insulin receptor-derived peptides, insulin-stimulated DNA synthesis (BrDU incorporation); assay type: cell-based, Rat; conditions: FIG. 13; for Insulin-stimulated DNA synthesis: high glucose (25 mM); for Insulin-stimulated DNA synthesis / DNA synthesis in insulin-stimulated cells: peptide 10 mM microinjected, 100 ng/ml insulin; for DNA synthesis in insulin-stimulated cells: normal glucose (5 mM)
# Description: HIRcB cells were grown to sub-confluence on glass coverslips in D-MEM medium containing normal (5 mM) or high (25 mM) glucose and rendered quiescent by serum deprivation for 24 h. Synthetic cyclo-peptides were derived from the human insulin receptor, containing sequence […] (SEQ ID NO:5) (Serine-1035) and […] (SEQ ID NO:1) (Serine-1270) were synthesized using methods well known in the art. The peptides were dissolved in microinjection buffer containing 5 mM NaPO4 and 100 mM KCl, pH 7.2, to a final concentration of 10 mM. All microinjected reagents contained rabbit IgG (5 mg/ml) to allow the identification […] cells. Samples were microinjected into the cell cytoplasm using an automated microinjection system at a typical needle pressure of about 100 hectopascals resulting in the introduction of 10^5 molecules of IgG.
# Approximately 1 h after microinjection, the cells were stimulated with 100 ng/ml insulin and […] BrDU was added. Cells were incubated at 37° C. for an additional 16 h, and then fixed and stained using a monoclonal anti-BrDU antibody. Injected cells were identified with fluorescein isothiocyanate-conjugated donkey anti-rabbit IgG. Nuclear BrDU incorporation was detected with tetramethylrhodamine isothiocyanate-conjugated donkey anti-mouse IgG. The cells were analyzed by fluorescence microscopy.
# [4] = system: HIRcB cells; test: Insulin-stimulated DNA synthesis (BrDU incorporation) with PKC inhibitors; assay type: cell-based, Rat; conditions: microinjection of the inhibitor peptide, high glucose 25 mM; FIG. 11
# Description: HIRcB or ΔCT cells were cultured on acid-washed glass coverslips, grown to semi-confluence, and then starved in serum-free DME with 1 mM glucose. The peptide was dissolved in microinjection buffer containing 5 mM NaPO4 and 100 mM KCl, pH 7.4. The cells were microinjected with the PKC inhibitor peptide using glass capillary needles. Approximately 10 femtoliters of this solution was introduced into each cell. The injection included 1×10^6 molecules of IgG as marker for microinjection.
# Two hours after microinjection, cells were incubated with BrDU plus various concentrations of growth factors for 16 h at 37° C. The cells were fixed with acid alcohol (90% ethanol, 5% acetic acid) for 20 min at 22° C., and then incubated with mouse monoclonal anti-BrDU antibody for 1 h at 22° C. […] After coverslips were mounted, the cells were analyzed and photographed with an Axiophot fluorescence microscope (Zeiss). […]
# The effects of high glucose upon insulin-induced DNA synthesis were examined by first exposing cells to high glucose for 1 h, and then to insulin and BrDU for an additional 18 h. High glucose decreased DNA synthesis in insulin-stimulated cells by 30%, as measured by BrDU incorporation (FIG. 10).
Molecule,Effect on hyperglycemia-induced inhibition of insulin receptor kinase activity [2],Insulin-stimulated DNA synthesis [3],DNA synthesis in insulin-stimulated cells [3],also measured
CCCCCCCCCCCCCC(=O)O[C@@H]1[C@@H](C)[C@@]2(O)[C@@H](C=C(CO)C[C@]3(O)C(=O)C(C)=C[C@@H]23)[C@@H]2C(C)(C)[C@]12OC(C)=O [Phorbol ester],,,,Increase of insulin receptor phosphorylation [1]: 1.5 fold
CC1CNCCN1S(=O)(=O)c1cccc2cnccc12 (stereo not drawn) [H7],is inhibited,,,
KTVNESASLRE (also: cyclized; listed as Homo sapiens) [Ser-1035],,significantly increased insulin-stimulated DNA synthesis,slightly increased DNA synthesis,
polymyxin B,is inhibited,,,
DDLHPSFPEVS (also: cyclized; listed as Homo sapiens) [Ser-1270],,significantly increased insulin-stimulated DNA synthesis,slightly increased DNA synthesis,"Increase in DNA synthesis compared between the two injected peptides ([3]; normal and high glucose, in each instance): greater than in Ser-1035 peptide-injected cells"
RFARKGALRQKNV [peptide 19-31],,,,Reversal of high glucose inhibition of insulin-stimulated DNA synthesis (BrDU incorporation) [4]: partially reversed inhibition of DNA synthesis
